Data published in PMC2792043 (PLoS ONE, 2009).
In brackets after ≈: the same amount, converted by molar mass. Several values for one entry are separate records, joined by “and”; a condition that tells them apart may be missing. Identical values can stand only once. Counter-ions that a name gives are not always drawn.

What was measured:
[1] = tested on: NA activity; assay type: biochemical
[2] = tested on: influenza A PR8 virus; assay type: cell-based, Influenza A/Puerto Rico/8/34 (H1N1)
[3] = molecular target: recombinant N4 protein (Influenza A virus, UniProt Q6XV43); assay: biochemical
[4] = tested on: mice; details: mouse, in vivo; cited from earlier work
[5] = tested on: hamsters; details: hamster, in vivo; cited from earlier work
[6] = in vitro; details: pH 7.2
[7] = tested on: influenza A PR8 virus; assay: microbe, parasite or virus in culture; assay type: cell-based; details: PR8, MDCK, 48 h, read-out: minimum effective dose required to protect 50% of cells (EC50)
[8] = tested on: influenza A strains PR8, NY or NC; assay type: cell-based
[9] = tested on: influenza A NC virus; assay type: cell-based
[10] = tested on: NMRI mice; details: mouse, in vivo; cited from earlier work
[11] = tested on: influenza A NY virus; assay type: cell-based
[12] = tested on: influenza A PR8 virus; assay type: cell-based, Influenza A/Puerto Rico/8/34 (H1N1); remark: listed apart in the source
[13] = tested on: influenza A and B viruses; assay type: cell-based
[14] = tested on: influenza A PR8 virus; assay type: cell-based, Influenza A/Puerto Rico/8/34 (H1N1); remark: listed apart in the source
[15] = molecular target: NA from influenza NC virus (Influenza A virus, UniProt Q7TG96); assay type: biochemical; details: read-out: IC50 NA activity
[16] = tested on: influenza A PR8 virus; assay type: cell-based
[17] = tested on: influenza A or B viruses; assay type: cell-based

## NC12CC3CC(CC(C3)C1)C2 [AH, amantadine hydrochloride]
[1]
  inhibition of NA activity: no inhibition
[2]
  Virus yield, Cells: 4.7×10^5 PFU/ml
  Virus yield, Medium: 3×10^5 PFU/ml

## O=C(O)C1=CC(=C(c2ccc(O)c(C(=O)O)c2)c2ccc(O)c(C(=O)O)c2)C=CC1=O [ATA, Aurintricarboxylic acid]
[3]
  IC50: 2.37 µM
[4]
  single dose tolerated well: ≤ 4 mg/kg
[2]
  Virus yield, Cells: 5×10^4 PFU/ml
  Virus yield, Medium: 1.3×10^4 PFU/ml
  magnitude of inhibition, production of infectious viral particles: at least 3 logs
[5]
  well tolerated infusion dose: up to 1 mg/kg/hour
[6]
  CC50 at 48 h: 577 µg/mL (≈ 1370 µM)
[7]
  EC50: 6.5 µg/mL (≈ 15.4 µM)
[8]
  protection from virus-induced CPE, prophylactic exposure: did not protect cells from virus-induced CPE
  protection of infected MDCK cells (neutral red uptake): significantly protected MDCK cells from influenza infection
[9]
  reduction of virus abundance in medium: 86% and 94%
[10]
  LD50: 340 mg/kg
  median life span: 18 days
[11]
  reduction of virus abundance in medium: 72% and 81%
[12]
  viral NP RNA level: substantial reduction in viral NP RNA
[13]
  plaques after pre-incubation of virus with ATA: reduced the number of plaques
[14]
  viral aggregation by electron microscopy: induce viral aggregation on the cell surface
[15]
  IC50: 39.3 µM
[16]
  reduction of virus abundance in medium: 93% and 95%
[17]
  number and size of plaques: reduced both the number and size of plaques

## N-acetyl-2,3-dehydro-2-deoxyneuraminic acid [NAA]
[1]
  inhibition of NA activity: inhibited NA activity with very low IC50 values
[2]
  Virus yield, Cells: 6.2×10^6 PFU/ml
  Virus yield, Medium: 4.7×10^6 PFU/ml
